Measured values published in patent publication US10457619B2, “Resorcinol derivatives for cosmetic use thereof” (L'OREAL, priority 2015, dated 2019).

These compounds were tested on pigmented reconstructed epidermides (keratinocytes and melanocytes of European origin, Episkin) (assay: Depigmenting activity on pigmented reconstructed epidermis (melanin quantified by image analysis, Fontana-Masson stain)). Settings: compounds at 30 μM in DMSO, added to culture medium.
Type: cell-based, human
Experimental: The aim of this test is to evaluate the modulation of melanogenesis in pigmented reconstructed epidermides after “systemic” application of the products. • The compounds are tested at 30 μM in DMSO. • The pigmented epidermides are reconstructed using keratinocytes and melanocytes of European origin seeded on the substrate BPER (Episkin). The test products are added to the culture medium immediately on seeding the cells and at all the changes of medium.
The pigmented reconstructed epidermis standard study model was published by:
Regnier M., Duval C., Galey J. B., Philippe M., Lagrange A., Tuloup R., Schmidt R., Cellular and Molecular Biology, 1999, 45, 7, 969-980: “Keratinocyte-melanocyte co-cultures and pigmented reconstructed human epidermis: models to study modulation of melanogenesis”.
The melanin was quantified by image analysis on histological sections after revelation with Fontana-Masson stain. Each stained epidermis is photographed over its entire length using a camera connected to a microscope.
The decrease in the amount of melanin is evaluated relative to the solvent (DMSO)

Structure (SMILES)	Depigmenting activity/DMSO (decrease in the amount of melanin relative to the solvent) [%]
CC(CCO)c1ccc(O)cc1O (stereo not drawn) [Compound 1, 4-(3-hydroxy-1-methylpropyl) benzene-1,3-diol]	−59
CCCCc1ccc(O)cc1O [Lucinol, reference compound]	−41

Each compound was assayed on normal human melanocytes (assay: Activity on constitutive melanogenesis: melanin production by normal human melanocytes in vitro). Settings: Melanocyte, 72 hours incubation, optical density, maximum concentration tested 200 μM, read-out: IC50 (μM): concentration at which a 50% decrease in melanin synthesis is achieved.
Type: cell-based
Experimental: For the evaluations of the effect of preventing or decreasing pigmentation of the skin and/or of lightening of this skin, the examples are performed in the following manner.
The measurement of the depigmenting activity (reduction of melanin production) of compounds of formula (I) was performed by assaying normal human melanocytes in vitro as follows.
First of all, normal human melanocytes were cultured and dispensed into 384 wells. After 24 hours, the culture medium was replaced with a medium containing compounds of formula (I) to be evaluated. The cells were incubated for 72 hours before measurement of the final optical density, which measures the amount of melanin produced by the melanocytes. A dose effect was performed using a wide concentration range of the compounds evaluated. Thus, by making the concentrations and the melanin measurements correspond, it was possible to determine an IC50 in μM: concentration at which a 50% decrease in melanin synthesis is achieved.

Structure (SMILES)	IC50 [µM]
OCCCc1ccc(O)cc1O [compound (A), reference compound]	23.4
CC(=O)OCCC(C)c1ccc(O)cc1O (stereo not drawn) [Compound 3, 3-(2,4-dihydroxyphenyl) butyl acetate]	4.96
CC(=O)OCCC(C)c1ccc(OC(C)=O)cc1OC(C)=O (stereo not drawn) [Compound 2, 4-[4-(acetyloxy)but-2-yl]benzene-1,3-diyl diacetate]	4.08
CC(CCO)c1ccc(O)cc1O (stereo not drawn) [Compound 1, 4-(3-hydroxy-1-methylpropyl) benzene-1,3-diol]	3.61
